This is an account of results in patent US12221419B2, “Abietanes and methods of making and using the same” (Florida State University Research Foundation, Incorporated., priority 2022, dated 2025).

In one test the test system is glioblastoma cells. The test is described as follows: activity in glioblastoma cell culture (3D 'tumor' cell growth, FIG. 6). It counts as cell-based. The conditions noted are these: 3D 'tumor' cells, comparator alendronate. The source says:
With entry to fully synthetic abietanes in hand, we explored the activity of taxodione (FL-1) and several synthetic analogs (FL-2 and FL-3) in glioblastoma cell culture (FIG. 6). […] Nevertheless, it is clear that a synthetic entry to bioactive molecules that inhibit glioblastoma cell growth has been established. This is a particularly important application because glioblastoma is an invasive brain cancer with a 5-year mean survival rate of only 5.5%. There are few effective treatments beyond surgery and ionizing radiation. Thus, new therapy modalities are urgently needed.

Test [1] deals with T1, farnesyl diphosphate synthase (Homo sapiens, UniProt P14324).
T1 sequence (P14324 1-419): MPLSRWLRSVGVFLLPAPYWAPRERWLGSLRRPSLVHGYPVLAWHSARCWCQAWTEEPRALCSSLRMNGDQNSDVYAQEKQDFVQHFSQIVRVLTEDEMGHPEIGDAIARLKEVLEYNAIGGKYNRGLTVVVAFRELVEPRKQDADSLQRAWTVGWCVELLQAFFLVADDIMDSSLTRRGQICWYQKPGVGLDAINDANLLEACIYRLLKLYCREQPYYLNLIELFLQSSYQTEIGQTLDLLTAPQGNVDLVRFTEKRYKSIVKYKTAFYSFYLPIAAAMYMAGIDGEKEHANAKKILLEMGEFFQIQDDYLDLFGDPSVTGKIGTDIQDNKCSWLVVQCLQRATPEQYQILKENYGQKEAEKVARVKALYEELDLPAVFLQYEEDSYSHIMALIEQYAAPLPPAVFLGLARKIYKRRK
Particulars: statement from cited literature (ref. 28); cited from earlier work.

SMILES strings stand for the structures.

With `CC(C)C1=CC2=CC(=O)[C@H]3C(C)(C)CCC[C@]3(C)C2=C(O)C1=O` (racemic) [FL-1, (±)-taxodione], the “arresting 3D 'tumor' cell growth / inhibiting glioblastoma cell growth” value in the test with glioblastoma cells is “superior to alendronate”. In addition, the “inhibitor of farnesyl diphosphate synthase” value in test [1] is “inhibitor of farnesyl diphosphate synthase”.
